Where two headings read alike, the source gives them in different places.
Legend:
Huh7 cells = assay: Sphere formation assay; assay type: cell-based; settings: Homo sapiens, Huh-7, 48 h drug treatment, 13 days culture, read-out: % Inhibition of sphere forming Huh7
Procedure: (§1) Sphere forming ability of Hep3B and Huh7 cells were examined after incubation with drugs for 48 h. Briefly, 3 × 10^3 cells which were pre-treated with or without drugs in prEGM media (Lonza, Basel, Switzerland) were seeded on an ultra-low adhering 24 well plate (Corning Incorporated Costar, Corning, NY). Twice a week, 500 µL of used medium was replaced with fresh prEGM media. At 13 days after plating, images of spheres were captured using Celloger Mini (Curiosis Inc., Seoul, South Korea). The number of spheroids over 50 µm in diameter was counted by using Image J software (National Institute of Health, Bethesda, MD).

Hep3B cells = assay: Sphere formation assay; assay type: cell-based; settings: Homo sapiens, 48 h drug treatment, 13 days culture, read-out: % Inhibition of sphere forming Hep3B
Procedure: as §1

VEGFR-2 tyrosine kinase = molecular target: T1, VEGFR-2 tyrosine kinase (Homo sapiens, UniProt P35968); assay: VEGFR-2 (KDR) kinase assay (ADP-glow); assay type: biochemical; settings: fixed concentration 1 µM; read-out: inhibitory activity against VEGFR-2 tyrosine kinase
T1 construct: purchased Promega
T1 sequence (P35968 20-1356): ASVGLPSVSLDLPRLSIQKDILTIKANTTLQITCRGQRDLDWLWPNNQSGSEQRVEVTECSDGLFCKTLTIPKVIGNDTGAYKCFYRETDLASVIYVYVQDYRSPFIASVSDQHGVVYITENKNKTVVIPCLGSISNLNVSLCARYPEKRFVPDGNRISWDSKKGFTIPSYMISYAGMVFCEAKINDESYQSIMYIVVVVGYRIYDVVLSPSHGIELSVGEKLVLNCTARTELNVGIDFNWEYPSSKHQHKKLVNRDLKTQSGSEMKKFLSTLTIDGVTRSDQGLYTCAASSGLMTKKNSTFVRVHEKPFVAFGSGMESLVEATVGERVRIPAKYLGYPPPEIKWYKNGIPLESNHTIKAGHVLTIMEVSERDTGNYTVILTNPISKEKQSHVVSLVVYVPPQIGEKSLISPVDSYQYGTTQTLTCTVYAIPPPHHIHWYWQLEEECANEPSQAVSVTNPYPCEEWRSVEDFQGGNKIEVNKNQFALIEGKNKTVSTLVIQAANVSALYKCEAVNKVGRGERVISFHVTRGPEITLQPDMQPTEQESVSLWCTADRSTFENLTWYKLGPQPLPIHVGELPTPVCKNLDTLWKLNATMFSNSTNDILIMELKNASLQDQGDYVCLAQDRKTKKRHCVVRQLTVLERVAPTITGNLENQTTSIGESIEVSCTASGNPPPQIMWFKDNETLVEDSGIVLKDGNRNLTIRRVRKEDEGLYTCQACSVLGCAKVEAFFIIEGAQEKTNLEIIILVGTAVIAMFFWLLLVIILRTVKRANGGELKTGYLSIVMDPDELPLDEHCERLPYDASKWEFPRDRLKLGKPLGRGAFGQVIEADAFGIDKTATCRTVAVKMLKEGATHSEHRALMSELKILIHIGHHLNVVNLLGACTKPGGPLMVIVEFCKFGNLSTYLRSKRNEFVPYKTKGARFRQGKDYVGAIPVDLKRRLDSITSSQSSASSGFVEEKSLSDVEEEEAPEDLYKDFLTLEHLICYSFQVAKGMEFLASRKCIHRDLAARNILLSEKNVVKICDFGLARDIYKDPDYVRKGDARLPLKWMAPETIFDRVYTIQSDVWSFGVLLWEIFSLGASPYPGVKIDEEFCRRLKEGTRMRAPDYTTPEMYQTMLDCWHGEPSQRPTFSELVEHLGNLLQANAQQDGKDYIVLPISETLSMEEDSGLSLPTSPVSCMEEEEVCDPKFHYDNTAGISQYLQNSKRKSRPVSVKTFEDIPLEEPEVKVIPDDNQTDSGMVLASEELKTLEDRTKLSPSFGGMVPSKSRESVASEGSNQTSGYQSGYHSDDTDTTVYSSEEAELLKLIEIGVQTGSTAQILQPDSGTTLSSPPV

C-Raf = C-Raf (Homo sapiens, UniProt P04049); assay: Raf kinase assay (Kinase HotSpot, Reaction Biology Corp.); assay type: biochemical; settings: for inhibition at 1 µM: read-out: Inhibition (%) C-Raf
C-Raf, sequence (P04049 whole entry): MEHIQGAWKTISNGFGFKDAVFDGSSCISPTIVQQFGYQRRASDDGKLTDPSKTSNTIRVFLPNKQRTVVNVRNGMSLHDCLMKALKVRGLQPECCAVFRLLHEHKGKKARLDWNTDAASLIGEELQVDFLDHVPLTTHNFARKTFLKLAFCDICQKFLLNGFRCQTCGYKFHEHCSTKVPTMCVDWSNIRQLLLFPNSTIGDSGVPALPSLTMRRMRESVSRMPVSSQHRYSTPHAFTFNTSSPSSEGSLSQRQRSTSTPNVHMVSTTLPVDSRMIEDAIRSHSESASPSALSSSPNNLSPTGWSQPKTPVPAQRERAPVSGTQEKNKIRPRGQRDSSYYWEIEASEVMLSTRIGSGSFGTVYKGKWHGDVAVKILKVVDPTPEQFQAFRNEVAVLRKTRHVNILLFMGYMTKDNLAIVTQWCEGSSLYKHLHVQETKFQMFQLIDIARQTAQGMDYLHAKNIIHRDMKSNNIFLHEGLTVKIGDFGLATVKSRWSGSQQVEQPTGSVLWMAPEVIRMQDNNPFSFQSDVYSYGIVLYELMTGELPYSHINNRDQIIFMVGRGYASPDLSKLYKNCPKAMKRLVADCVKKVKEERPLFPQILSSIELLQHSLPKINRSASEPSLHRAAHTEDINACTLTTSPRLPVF
Procedure: (§2) Compounds were delivered into each Raf reaction, followed ∼20 min later by addition of a mixture of ATP and [γ-^33P-ATP] (specific activity approx. 500 cpm/pmol, concentration as required) to a final concentration of 10 µM. After incubation for 40 min at 25 °C, the reaction was stopped by the addition of a 3% phosphoric acid solution. Then, the reaction was spotted onto a P30 filtermat, and unbound phosphate was removed by washing three times for 5 min in 75 mM phosphoric acid and once in methanol prior to drying and scintillation counting. […] IC50 values and curve fits were obtained using Prism (GraphPad Software, La Jolla, CA).

B-Raf = B-Raf (Homo sapiens, UniProt P15056); assay: as above; assay type: biochemical; settings: for inhibition at 1 µM: fixed concentration 1 μM, mean of two independent experiments
B-Raf, sequence (P15056 whole entry): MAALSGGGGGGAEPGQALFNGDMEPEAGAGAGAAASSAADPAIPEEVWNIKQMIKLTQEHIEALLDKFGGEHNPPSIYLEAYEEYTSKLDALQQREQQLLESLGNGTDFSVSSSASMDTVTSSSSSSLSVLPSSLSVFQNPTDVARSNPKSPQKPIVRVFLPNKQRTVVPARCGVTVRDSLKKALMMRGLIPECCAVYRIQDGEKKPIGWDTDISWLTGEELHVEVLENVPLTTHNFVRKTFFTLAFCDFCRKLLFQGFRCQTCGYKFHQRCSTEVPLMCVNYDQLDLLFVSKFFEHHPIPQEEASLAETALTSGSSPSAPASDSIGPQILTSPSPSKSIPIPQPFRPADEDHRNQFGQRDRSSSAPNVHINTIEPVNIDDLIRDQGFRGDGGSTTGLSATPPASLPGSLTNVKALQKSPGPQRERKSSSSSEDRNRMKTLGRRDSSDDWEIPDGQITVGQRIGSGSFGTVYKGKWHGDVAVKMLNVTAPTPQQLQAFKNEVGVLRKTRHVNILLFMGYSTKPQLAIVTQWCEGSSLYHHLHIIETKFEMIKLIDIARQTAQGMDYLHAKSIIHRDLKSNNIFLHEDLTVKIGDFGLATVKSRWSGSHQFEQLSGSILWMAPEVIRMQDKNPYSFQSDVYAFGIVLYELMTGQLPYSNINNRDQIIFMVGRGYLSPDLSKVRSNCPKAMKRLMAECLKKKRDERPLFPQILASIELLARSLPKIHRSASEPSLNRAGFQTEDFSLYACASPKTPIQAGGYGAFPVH
Procedure: as §2

B-Raf (V600E) = B-Raf (V600E) (Homo sapiens, UniProt P15056, V600E); assay: as above; assay type: biochemical; settings: for inhibition at 1 µM: fixed concentration 1 μM, mean of two independent experiments, B-Raf (V599E)
B-Raf (V600E), sequence (P15056 whole entry V600E): as the sequence (P15056 whole entry) above, with V600E counted along it
Procedure: as §2

A-Raf = molecular target: T2, A-Raf (Homo sapiens, UniProt P10398); assay: as above; assay type: biochemical; settings: for inhibition at 1 µM: fixed concentration 1 μM, mean of two independent experiments
T2 sequence (P10398 1-606): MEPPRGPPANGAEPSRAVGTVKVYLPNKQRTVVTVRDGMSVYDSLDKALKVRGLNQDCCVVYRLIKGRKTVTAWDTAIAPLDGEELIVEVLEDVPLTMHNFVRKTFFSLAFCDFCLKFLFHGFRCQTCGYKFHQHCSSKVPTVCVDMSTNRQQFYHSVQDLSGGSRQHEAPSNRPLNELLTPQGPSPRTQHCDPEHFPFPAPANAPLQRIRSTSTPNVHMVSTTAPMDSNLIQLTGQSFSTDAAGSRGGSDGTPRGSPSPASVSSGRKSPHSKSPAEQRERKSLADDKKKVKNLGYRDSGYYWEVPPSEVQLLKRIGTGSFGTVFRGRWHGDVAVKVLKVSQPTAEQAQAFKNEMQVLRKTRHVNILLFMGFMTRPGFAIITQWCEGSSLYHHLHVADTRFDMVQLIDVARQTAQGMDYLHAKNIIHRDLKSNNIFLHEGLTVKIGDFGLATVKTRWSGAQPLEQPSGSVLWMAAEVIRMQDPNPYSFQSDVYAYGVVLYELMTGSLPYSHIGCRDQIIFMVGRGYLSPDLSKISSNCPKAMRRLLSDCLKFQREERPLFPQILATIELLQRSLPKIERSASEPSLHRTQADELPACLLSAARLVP
Procedure: as §2, with “After incubation for 40 min at 25 °C, the reaction was stopped by the addition of a 3% phosphoric acid solution.” left out

Huh7 = assay: Cell proliferation assay (MTT); assay type: cell-based; settings: Homo sapiens, Huh-7, 48 h, mean ± SEM of three independent experiments, read-out: Cancer cell proliferation IC50 Huh7
Procedure: (§3) Hepatocellular carcinoma cell lines (HepG2, Huh7), human pancreatic ductal epithelial cell line (H6c7), and normal human colon cell line (CCD841) were obtained from the American Type Culture Collection (ATCC) (Manassas, VA, USA). Cells were cultured in DMEM/High Glucose media (Hep3B, Huh7, CCD841) or MEM/EBSS media (HepG2) containing 10% FBS, 100 IU/ml of penicillin and 100 µg/ml of streptomycin. H6c7 cells were cultured in keratinocyte serum free media supplemented with epidermal growth factor and bovine pituitary extract. Cells were maintained in 5% CO2 humidified atmosphere at 37 °C.
(§4) Cells were seeded in a 96-well plate and allowed to adhere for 24 h. The cells were serum starved in 1% serum containing medium for 12 h, and then treated with drugs in 10% serum-containing medium. After incubation for 48 h, cell proliferation was measured using MTT assay. Optical density was measured at 540 nm using a Spectrostar Nano microplate reader (BMG LABTECH GmbH, Ortenberg, Germany).

HepG2 = assay: Cell proliferation assay (MTT); assay type: cell-based; settings: Homo sapiens, 48 h, mean ± SEM of three independent experiments, read-out: Cancer cell proliferation IC50 HepG2
Procedure: as §3, §4

Hep3B = assay: Cell proliferation assay (MTT); assay type: cell-based; settings: Homo sapiens, 48 h, mean ± SEM of three independent experiments, read-out: Cancer cell proliferation IC50 Hep3B
Procedure: as §3, §4

[1] = Cytotoxicity assay (MTT), normal cells; assay type: cell-based, human; settings: human, mean ± SEM
Procedure: as §3
(§5) Cells were seeded in a 96-well plate and allowed to adhere for 24 h. Cells in low serum (1%)-containing medium were treated with drugs for 48 h. In case of H6c7 cells, cells in keratinocyte serum free media were treated with drugs for 48 h. Then, cell viability was measured using MTT assay. Optical density was measured at 540 nm using a Spectrostar Nano microplate reader (BMG LABTECH).

CCD841 = assay: Cytotoxicity assay (MTT), normal cells; assay type: cell-based, human; settings: normal colon epithelial cell line, 48 h, mean ± SEM
Procedure: as §3, §5

H6c7 = assay: Cytotoxicity assay (MTT), normal cells; assay type: cell-based, human; settings: normal pancreatic ductal epithelial cell line, 48 h, mean ± SEM
Procedure: as §3, §5

[2] = test system: Huh7 cells xenografted onto CAM; assay: Huh7-xenografted CAM tumour model; assay type: in vivo, chick; settings: 10 µM final concentration on CAM; Huh7 xenograft
Procedure: Cancer cell xenograft onto chick chorioallantoic membrane (CAM), an in vivo tumour model, was used to evaluate anti-tumour efficacy of compounds. Fertilised chicken eggs purchased from Byeolbichon Farm (Gyeongbuk, South Korea) were incubated at 37 °C with 55% relative humidity. On day 9 of egg incubation (embryonic day 9, E9), a small hole was made in the shell over the air sac after the selection of bifurcated vessels. Another hole was made on the broadside using a needle by applying negative pressure from the wider part, creating false air sac. Using a grinding wheel (Dremel, Racine, WI), a small window (1 cm^2) was created in the eggshell above the false air sac. For generation of xenograft CAM tumour model, Huh7 cells (1.5 × 10^6 cells/CAM) were inoculated on the CAM with or without test drugs (10 µM final concentration). On day 13 of egg incubation (E13), tumour tissues attached to CAM were resected from the embryo and harvested. Photographs of tumour as well as blood vessel branches were taken using optical microscope (Olympus Corporation, Tokyo, Japan). Tumour tissues were weighted and the number of vessel branch points within the tumour region was counted.

[3] = fixed concentration 1 μM, mean of two independent experiments
[4] = CCD841 cells (normal colon epithelial cell line)
[5] = H6c7 cells (normal pancreatic ductal epithelial cell line)

Row | melting point [°C] | inhibition at 1 µM (C-Raf; [3]) [%] | inhibition at 1 µM (B-Raf) [%] | inhibition at 1 µM (B-Raf (V600E)) [%] | inhibition at 1 µM (A-Raf) [%] | Compound | inhibition at 1 µM (Huh7 cells) [%] | inhibition at 10 µM (Huh7 cells) [%] | inhibition at 1 µM (Hep3B cells) [%] | inhibition at 10 µM (Hep3B cells) [%] | IC50 (Huh7) [µM] | IC50 (HepG2) [µM] | IC50 (Hep3B) [µM] | CC50 at 48 h [1, 4] [µM] | CC50 at 48 h [1, 5] [µM] | further results
1 | 244 | 92.5 | 65 | 88.2 | 84.6 | CNC(=O)c1cc(Oc2c(C)nc(NC(=O)Nc3cccc(C(F)(F)F)c3)c(C)c2C)ccn1 [Compound 6, N-Methyl-4-((2,4,5-trimethyl-6–(3-(3-(trifluoromethyl)phenyl)ureido)pyridin-3-yl)oxy)picolinamide] | 23.8 | 44.2 | 38.3 | 55.6 | 4.77 ± 0.09 | 5.02 ± 0.06 | 6.49 ± 0.12 | > 10 | > 10 | inhibition at 1 µM (VEGFR-2 tyrosine kinase): ~-6%; IC50 (C-Raf; mean ± SD of two independent experiments, read-out: In vitro Raf kinase inhibition IC50 C-Raf): 0.022 ± 0.0008 µM; IC50 (B-Raf; mean ± SD of two independent experiments, read-out: In vitro Raf kinase inhibition IC50 B-Raf): 0.216 ± 0.0436 µM; IC50 (B-Raf (V600E); mean ± SD of two independent experiments, read-out: In vitro Raf kinase inhibition IC50 B-Raf(V600E)): 0.07 ± 0.0004 µM; IC50 (A-Raf; mean ± SD of two independent experiments, read-out: In vitro Raf kinase inhibition IC50 A-Raf): 0.057 ± 0.0086 µM
2 | 251 | 91 | 48.5 | 75.2 | 72.4 | CNC(=O)c1cc(Oc2c(C)nc(NC(=O)Nc3ccc(Cl)c(C(F)(F)F)c3)nc2C)ccn1 [Compound 28, 4-((2-(3-(4-Chloro-3-(trifluoromethyl)phenyl)ureido)-4,6-dimethylpyrimidin-5-yl)oxy)-N-methylpicolinamide] | – | – | – | – | – | – | – | – | – | –

Row | Compound | melting point [°C] | inhibition at 1 µM (C-Raf; [3]) [%] | inhibition at 1 µM (B-Raf) [%] | inhibition at 1 µM (B-Raf (V600E)) [%] | inhibition at 1 µM (A-Raf) [%] | inhibition at 1 µM (Huh7 cells) [%] | inhibition at 10 µM (Huh7 cells) [%] | inhibition at 1 µM (Hep3B cells) [%] | inhibition at 10 µM (Hep3B cells) [%] | IC50 (Huh7) [µM] | IC50 (HepG2) [µM] | IC50 (Hep3B) [µM] | CC50 at 48 h [1, 4] [µM] | CC50 at 48 h [1, 5] [µM] | further results
3 | CNC(=O)c1cc(Oc2ccc(NC(=O)Nc3ccc(Cl)c(C(F)(F)F)c3)cc2)ccn1 [Sorafenib, reference compound] | – | – | – | – | 93.7 | 59.7 | 85.9 | 43.6 | 56.4 | 1.17 ± 0.04 | 1.29 ± 0.02 | 1.22 ± 0.05 | ~4.1 | ~4.4 | inhibition at 1 µM (C-Raf): 97.6%; CC50 (CCD841): 4.08 ± 0.58 µM; CC50 (H6c7): 4.36 ± 0.21 µM; inhibition of tumour-induced angiogenesis (new vessel branches) [2]: significantly blocked

Source: paper PMC8344761 (Journal of Enzyme Inhibition and Medicinal Chemistry, 2021)
